We go through 2 compounds from PMC11167311, “Revolutionizing GPCR–ligand predictions: DeepGPCR with experimental validation for high-precision drug discovery” (Briefings in Bioinformatics, 2024).

Each structure is given as a SMILES string. Read-outs that look alike come from different tables or passages of the source.

The target in test [1] is T1, hGPR35 (Homo sapiens, UniProt Q9HC97).
T1 construct: expressed in transfected cells
The test is described as follows: DMR agonism assay in CHO-GPR35 cells. The format is cell-based. The protocol: (§1) CHO-GPR35 cells were the same as our previously reported. CHO-GPR35 cells were cultured in an F12 medium supplemented with 10% FBS, penicillin (50 μg/ml), streptomycin (100 μg/ml) and zeocin (200 μg/ml) at 37°C under 5% CO2. HEK293 cells were purchased from the National Collection of Authenticated Cell Cultures (Shanghai, China) and cultured in DMEM medium supplemented with 10% FBS, penicillin (50 μg/ml) and streptomycin (100 μg/ml) and at 37°C under 5% CO2.
(§2) When the cells approached 90% confluence, they were seeded in 384-well biosensor plates with a density of 1.5 × 10^4 CHO-GPR35 or 2.5 × 10^4 HEK293-GLP-1R cells/well and cultured for 24 h. The culture medium in the 384-well biosensor plates was replaced with 30 μl of Hank’s balanced salt solution (1 × HBSS) and then further incubated inside the system for 1 h before measurement. For the dynamic mass redistribution (DMR) agonism assay, a 2-min baseline was first established, followed by adding compounds using the multi-channel pipette, and the compound-triggered DMR responses were recorded for approximately 1 h. […] For DMR antagonism assay, cells were initially treated with either an antagonist or compound for 1 h in GPR35 and 90 min in GLP-1R assays, respectively. […] All DMR responses were background-corrected.

Test [2] concerns the target T1, hGPR35. As to the kind of experiment: DMR antagonism (desensitization) assay in CHO-GPR35 cells, zaprinast challenge. The test is classed as cell-based. Particulars: for GPR35 receptor activity (result in words): CHO-GPR35 cells, desensitization when stimulated by agonist zaprinast. The protocol:
as §1, §2

T1 sequence (Q9HC97 whole entry): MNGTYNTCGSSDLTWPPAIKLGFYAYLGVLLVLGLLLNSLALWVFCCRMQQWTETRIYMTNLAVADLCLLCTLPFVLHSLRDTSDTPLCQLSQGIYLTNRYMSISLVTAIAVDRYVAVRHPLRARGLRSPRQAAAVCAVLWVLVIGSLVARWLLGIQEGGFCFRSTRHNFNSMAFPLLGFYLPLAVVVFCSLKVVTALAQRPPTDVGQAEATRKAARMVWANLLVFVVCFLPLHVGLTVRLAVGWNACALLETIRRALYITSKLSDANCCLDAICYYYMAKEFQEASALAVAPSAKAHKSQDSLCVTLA

As a reminder, the IC50 is the point on the concentration scale where inhibition reaches its midpoint. On to `CC(C)NC(=O)c1cccc(-c2noc(CCc3c[nH]c4ccccc34)n2)c1` [F545-1970], for which the “compound-triggered DMR signal in CHO-GPR35 cells” value in test [1] is “do not show a significant increase in DMR signal”. Further, the “GPR35 receptor activity (result in words)” value in test [2] is “GPR35 receptor antagonistic activity, with relatively weak activity”. Besides, in test [2] (read-out: IC50 (hGPR35, DMR desensitization)), the IC50 is 38.8 µM.

With `COCC12CCN(c3ccc(C#N)c(C(F)(F)F)c3)CC1CN(C(=O)CCc1ccccc1)C2` (stereo not drawn) [S948-0241], in test [1], the “compound-triggered DMR signal in CHO-GPR35 cells” value is listed as “do not show a significant increase in DMR signal”. For the same compound, in test [2], the concentration for half-maximal inhibition (IC50) stood at 67.9 µM and the “GPR35 receptor activity (result in words)” value is given as “GPR35 receptor antagonistic activity, with relatively weak activity”.
